Reference: patent publication US7452688B2, “Transformed cell with enhanced sensitivity to antifungal compound and use thereof” (Sumitomo Chemical Company, Limited, priority 2002, dated 2008)

Columns and labels:
Type in all cases: cell-based, Saccharomyces cerevisiae
AH22 strain [1] = experiment: Antifungal compound sensitivity test, control yeast AH22 strain (Example 3); conditions: 30° C. 48 hours, absorbance at 600 nm relative to 0 ppm = 100
Experimental: (§1) The transformed budding yeast AH22-BcOS1 prepared in Example 2 was cultured while shaking at 30° C. for 18 hours in a Glu-Leu medium. As a control, the AH22 strain was similarly cultured while shaking at 30° C. for 18 hours in a Glu medium. The absorbance at 600 nm of each of the grown transformed budding yeasts in a cell suspension was measured, and a cell suspension diluted with sterilized distilled water to the absorbance of 0.1 was prepared. Further, a cell suspension in which the aforementioned cell suspension of the transformed budding yeast AH22-BcOS1 was diluted 200-fold with a Glu-Leu medium, and a cell suspension in which the aforementioned cell suspension of the AH22 strain was diluted 200-fold with a Glu medium were prepared. A solution in which each of Compounds (1) to (3) was dissolved in dimethylsulfoxide (DMSO) to the concentration of 60 ppm, a solution in which each of Compounds (4) and (5) was dissolved in dimethylsulfoxide (DMSO) to the concentration of 2000 ppm, and a solution in which each of Compounds (6) and (7) was dissolved in dimethylsulfoxide (DMSO) to the concentration of 20 ppm were prepared, and two microplates were prepared in which each 2.0 μL per well of the Compound solution and DMSO as a control were dispensed into two wells. In one microplate among them, each 200 μL of cell suspensions of the transformed budding yeast AH22-BcOS1 which had been prepared by dilution as described above was dispensed, and cultured by allowing to stand at 30° C. for 48 hours. In another microplate, each 200 μL of the cell suspensions of the control yeast AH22 strain which had been prepared by dilution as described above was dispensed, and cultured by allowing to stand at 30° C. for 48 hours. After culturing, the absorbance at 600 nm of each well was measured with a microplate reader.
(§2) Degree of growths of both of the transformed budding yeasts cultured under the presence of each of Compound (1) to (7) and budding yeast as a control therefor are shown in Table 1. Degree of growths of both of the transformed budding yeasts and budding yeasts as a control therefor are expressed by a relative value in percentage, letting the absorbance at 600 nm in a well having the concentration of the aforementioned Compound of 0 ppm to be 100. It was confirmed that an inhibiting degree of growth of TM182-BcOS1 by each test substance was grater than an inhibiting degree of growth of AH22-BcOS1 by each test substance, and the TM182-BcOS1 was a transformed cell with the enhanced sensitivity to an antifungal compound as compared with AH22-BcOS1.

[2] = system: transformed budding yeast AH22-BcOS1; experiment: Antifungal compound sensitivity test, transformed budding yeast AH22-BcOS1 (Example 3); conditions: 30° C. 48 hours, absorbance at 600 nm relative to 0 ppm = 100
Experimental: as §1, §2

[3] = system: transformed budding yeast AH22-BcOS1-I365S; experiment: Antifungal compound sensitivity test, transformed budding yeast AH22-BcOS1-I365S (Example 6); conditions: absorbance at 600 nm relative to 0 ppm = 100
Text: Degrees of growths of both of the transformed budding yeasts cultured under the presence of Compounds (1) to (7) and budding yeast as a control therefor are shown in Table 2. Degrees of growths of both of the transformed budding yeasts and budding yeast as a control are expressed by a relative value in percentage, letting the absorbance at 600 nm at the concentration of the Compound of 0 ppm to be 100. It was confirmed that an inhibiting degree of growth of the transformed budding yeast TM182-BcOS1-I 365S by each test substance was grater than an inhibiting degree of growth of the transformed budding yeast AH22-BcOS1-I 365S by each test substance, and the transformed budding yeast TM182-BcOS1-I365S was a transformed cell with the enhanced sensitivity to an antifungal compound as compared with the transformed budding yeast AH22-BcOS1-I365S.

AH22 strain [4] = experiment: Antifungal compound sensitivity test, control yeast AH22 strain (Example 19); conditions: 30° C. 24.8 hours, relative value in percentage
Experimental: The transformed budding yeast AH22-RsOS1 prepared in Example 18 was cultured while shaking at 30° C. for 18 hours in a Glu-Leu medium. As a control, the AH22 strain was similarly cultured while shaking at 30° C. for 18 hours in a Glu medium. The absorbance at 600 nm of each grown transformed budding yeast in a cell suspension was measured, and cell suspension diluted with sterilized distilled water to the absorbance of 0.1 was prepared. Further, a cell suspension in which the aforementioned cell suspension of the transformed budding yeast AH22-RsOS1 was diluted 50-fold with a Glu-Leu medium, and a cell suspension in which the aforementioned cell suspension of the AH22 strain was diluted 50-fold with a Glu medium were prepared.
A solution in which each of Compounds (1) to (5) was dissolved in dimethylsulfoxide (DMSO) to the concentration of 600 ppm, and a solution in which Compounds (6) and (7) was dissolved in dimethylsulfoxide (DMSO) to the concentration of 60 ppm were prepared, and two microplates were prepared in which each 1.0 μL per well of the Compound solution and DMSO as a control were dispensed. In one microplate among them, each 100 μL of cell suspensions of the transformed budding yeast AH22-RsOS1 which had been prepared by dilution as described above was dispensed, and cultured by allowing to stand at 30° C. for 29.8 hours. In another microplate, each 100 μL of cell suspensions of the control yeast AH22 strain which had been prepared by dilution as described above was dispensed, and cultured by allowing to stand at 30° C. for 24.8 hours. After culturing, the absorbance at 600 nm of each well was measured with a microplate reader.
A degree of growth of the transformed budding yeast is expressed as a relative value in percentage, letting the absorbance at 600 nm at the concentration of the Compound of 0 ppm to be 100. It was confirmed that an inhibiting degree of growth of the transformed budding yeast TM182-RsOS1 by each test substance was grater than an inhibiting degree of growth of the transformed budding yeast AH22-RsOS1 by each test substance, and the transformed budding yeast TM182-RsOS1 was a transformed cell with the enhanced sensitivity to an antifungal compound as compared with the transformed budding yeast AH22-RsOS1.

In the case of `C=CC1(C)OC(=O)N(c2cc(Cl)cc(Cl)c2)C1=O` (stereo not shown) [Compound (3), Vinclozolin], the “Degree of growth of budding yeast (%) AH22 Glu medium” value (“Degree … (%) AH22 Glu medium” for short) (AH22 strain [1]; final concentration 0.6 ppm) is reported as 98%, the “Degree of growth of budding yeast (%) AH22-BcOS1 Glu-Leu medium” value (shortened to “Degree … (%) AH22-BcOS1 Glu-Leu medium”) ([2]; final concentration 0.6 ppm) is reported as 93% and the “Degree of growth of budding yeast (%) AH22-BcOS1-I365S Glu-Leu medium” value (from here on “Degree … (%) AH22-BcOS1-I365S Glu-Leu medium”) ([3]; final concentration 6 ppm) is reported as 75%. The “Degree of growth of budding yeast AH22 Glu medium” value (AH22 strain [4]; final concentration 6.0 ppm) was 82%.
In the case of `N#Cc1c[nH]cc1-c1cccc2c1OC(F)(F)O2` [Compound (6), Fludioxonil], the “Degree … (%) AH22 Glu medium” value (AH22 strain [1]; final concentration 0.2 ppm) is reported as 99%, the “Degree … (%) AH22-BcOS1 Glu-Leu medium” value ([2]; final concentration 0.2 ppm) is reported as 81% and the “Degree … (%) AH22-BcOS1-I365S Glu-Leu medium” value ([3]; final concentration 0.2 ppm) is reported as 67%. For the same compound, the “Degree of growth of budding yeast AH22 Glu medium” value (AH22 strain [4]; final concentration 0.6 ppm) was 79%.
In the case of `O=[N+]([O-])c1c(Cl)c(Cl)c(Cl)c(Cl)c1Cl` [Compound (4), Quintozene], the “Degree … (%) AH22 Glu medium” value (AH22 strain [1]; final concentration 20 ppm) is reported as 96%, the “Degree … (%) AH22-BcOS1 Glu-Leu medium” value ([2]; final concentration 20 ppm) is reported as 45% and the “Degree … (%) AH22-BcOS1-I365S Glu-Leu medium” value ([3]; final concentration 20 ppm) is reported as 83%. For the same compound, the “Degree of growth of budding yeast AH22 Glu medium” value (AH22 strain [4]; final concentration 6.0 ppm) was 83%.
For `CC12CC1(C)C(=O)N(c1cc(Cl)cc(Cl)c1)C2=O` (stereo not shown) [Compound (1), Procymidone], the “Degree … (%) AH22 Glu medium” value (AH22 strain [1]; final concentration 0.6 ppm) was 99%, the “Degree … (%) AH22-BcOS1 Glu-Leu medium” value ([2]; final concentration 0.6 ppm) was 90% and the “Degree … (%) AH22-BcOS1-I365S Glu-Leu medium” value ([3]; final concentration 6 ppm) was 68%. For the same compound, the “Degree of growth of budding yeast AH22 Glu medium” value (AH22 strain [4]; final concentration 6.0 ppm) was 88%.
In the case of `COP(=S)(OC)Oc1c(Cl)cc(C)cc1Cl` [Compound (5), Tolclofos-methyl], the “Degree … (%) AH22 Glu medium” value (AH22 strain [1]; final concentration 20 ppm) is reported as 97%, the “Degree … (%) AH22-BcOS1 Glu-Leu medium” value ([2]; final concentration 20 ppm) is reported as 79% and the “Degree … (%) AH22-BcOS1-I365S Glu-Leu medium” value ([3]; final concentration 20 ppm) is reported as 64%. For the same compound, the “Degree of growth of budding yeast AH22 Glu medium” value (AH22 strain [4]; final concentration 6.0 ppm) was 78%.
In the case of `N#Cc1c[nH]cc1-c1cccc(Cl)c1Cl` [Compound (7), Fenpiclonil], the “Degree … (%) AH22 Glu medium” value (AH22 strain [1]; final concentration 0.2 ppm) is reported as 101%, the “Degree … (%) AH22-BcOS1 Glu-Leu medium” value ([2]; final concentration 0.2 ppm) is reported as 94% and the “Degree … (%) AH22-BcOS1-I365S Glu-Leu medium” value ([3]; final concentration 0.2 ppm) is reported as 79%. The “Degree of growth of budding yeast AH22 Glu medium” value (AH22 strain [4]; final concentration 0.6 ppm) was 85%.
For `CC(C)NC(=O)N1CC(=O)N(c2cc(Cl)cc(Cl)c2)C1=O` [Compound (2), Iprodione], the “Degree … (%) AH22 Glu medium” value (AH22 strain [1]; final concentration 0.6 ppm) was 99%, the “Degree … (%) AH22-BcOS1 Glu-Leu medium” value ([2]; final concentration 0.6 ppm) was 92% and the “Degree … (%) AH22-BcOS1-I365S Glu-Leu medium” value ([3]; final concentration 6 ppm) was 81%. For the same compound, the “Degree of growth of budding yeast AH22 Glu medium” value (AH22 strain [4]; final concentration 6.0 ppm) was 92%.
